The values below are quoted from earlier work in patent US6372707B1, “Cleaning compositions” (Lever Brothers Company, division of Conopco, Inc., priority 1997, dated 2002).

For the data set the following is noted: for Water Solubility (g/100 g): grams of solid to form a saturated solution in 100 grams of water at 20° C.

Bounds are passed on as bounds.

With `O=BO[O-].[Na+]` [Sodium perborate anhydrous], the “Water Solubility (g/100 g)” value is reported as 3.7 g/100 g.
Consider `O=P(O)(O)OP(=O)(O)OP(=O)(O)O` [Sodium tripolyphosphate anhydrous], for which the “Water Solubility (g/100 g)” value is 15 g/100 g.
Consider `NC(N)=O` [Urea], for which the “Water Solubility (g/100 g)” value is reported as over 100 g/100 g. Also, the solubility in water result (at 20° C.) is on record as “exceeding 100 gms per 100 ml water”.
